IC50 data for 17 compounds are collected here from US9834518B2, “Compounds for inhibiting cell proliferation in EGFR-driven cancers” (ARIAD Pharmaceuticals, Inc., priority 2011, dated 2017).

One may read the IC50 as the concentration needed to halve the response being measured.

In test [1] the test system is BAF3 EGFR L858R-T790M PURO POOL. Put plainly: Cell proliferation (MTT), BAF3 EGFR L858R-T790M. Particulars: Ba/F3 EGFR. Format: cell-based. On the procedure:
(§1) We also assessed the antiproliferative activity of compounds of Formula (I) against BaF3 cells expressing the target EGFR mutations or control (i.e., cell lines expressing wildtype EGFR). Assays were conducted using MTT.

For test [2], the target named is human EGFR (native sequence) (Homo sapiens, UniProt P00533). Put plainly: Kinase inhibition, human EGFR (native sequence). Format: biochemical. Particulars: 10 μM ATP; 10 pt curves, 3 μM top concentration (singlicates). On the procedure: (§2) Kinase inhibitory activity of the compounds was measured against human EGFR (native sequence) and against EGFR bearing the L858R mution and the L858R/T790M double mutation (EGFR, L858R, and L858R/T790M, respectively in Table 1). Additional assays can be conducted with EGFR deletion mutants such as delE746-A750 with or without the additional T790M mutation. Assay conditions included 10 pt curves with 3 μM top concentration (singlicates) and 10 μM ATP.
Chain of human EGFR (native sequence) (P00533 25-1210): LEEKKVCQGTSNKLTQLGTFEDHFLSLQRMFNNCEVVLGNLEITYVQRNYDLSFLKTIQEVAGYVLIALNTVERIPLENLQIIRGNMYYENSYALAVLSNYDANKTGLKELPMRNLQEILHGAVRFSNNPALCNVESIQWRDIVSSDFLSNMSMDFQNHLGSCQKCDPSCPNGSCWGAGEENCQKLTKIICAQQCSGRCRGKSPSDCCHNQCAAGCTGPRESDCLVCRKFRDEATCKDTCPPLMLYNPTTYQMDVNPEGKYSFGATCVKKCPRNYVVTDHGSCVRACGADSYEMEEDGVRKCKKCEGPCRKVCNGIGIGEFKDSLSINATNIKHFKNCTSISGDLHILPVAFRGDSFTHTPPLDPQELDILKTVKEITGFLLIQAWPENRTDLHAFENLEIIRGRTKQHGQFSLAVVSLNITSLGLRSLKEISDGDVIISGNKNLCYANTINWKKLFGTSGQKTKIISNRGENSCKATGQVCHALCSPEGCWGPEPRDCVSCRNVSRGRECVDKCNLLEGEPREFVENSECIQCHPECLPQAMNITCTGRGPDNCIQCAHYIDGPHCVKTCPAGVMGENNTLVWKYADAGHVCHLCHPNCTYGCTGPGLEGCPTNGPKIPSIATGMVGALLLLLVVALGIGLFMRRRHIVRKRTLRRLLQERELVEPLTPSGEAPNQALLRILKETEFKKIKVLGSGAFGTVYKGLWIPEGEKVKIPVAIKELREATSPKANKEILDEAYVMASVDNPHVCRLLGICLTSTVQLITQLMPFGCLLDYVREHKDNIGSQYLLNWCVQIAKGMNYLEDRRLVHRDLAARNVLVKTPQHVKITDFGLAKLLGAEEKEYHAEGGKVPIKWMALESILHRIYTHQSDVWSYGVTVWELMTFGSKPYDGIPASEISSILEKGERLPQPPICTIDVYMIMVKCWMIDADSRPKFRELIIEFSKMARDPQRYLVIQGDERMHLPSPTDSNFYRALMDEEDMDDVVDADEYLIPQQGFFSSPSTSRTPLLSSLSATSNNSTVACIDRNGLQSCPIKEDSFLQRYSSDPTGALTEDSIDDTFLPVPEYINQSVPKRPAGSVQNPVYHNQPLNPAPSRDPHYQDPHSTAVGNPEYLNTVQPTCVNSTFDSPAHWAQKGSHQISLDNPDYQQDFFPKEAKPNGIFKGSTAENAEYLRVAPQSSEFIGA

Another test deals with BAF3 PARENTAL
In words: Cell proliferation (MTT), BAF3 parental. Format: cell-based. To be noted: Mus musculus. The method, then: as §1

The target in test [3] is BAF3 EGFR DEL T790M PURO POOL (Homo sapiens, UniProt P00533, DEL746-750/T790M, cells depend on it). Put plainly: Cell proliferation (MTT), BAF3 EGFR DEL T790M. The format is cell-based. On the procedure:
as §1

Test [4] deals with EGFR bearing the L858R/T790M double mutation (Homo sapiens, UniProt P00533, L858R/T790M). Put plainly: Kinase inhibition, EGFR L858R/T790M. The format is biochemical. Particulars: 10 μM ATP; 10 pt curves, 3 μM top concentration (singlicates). On the procedure:
as §2

Test [5] deals with EGFR bearing the L858R mution (Homo sapiens, UniProt P00533, L858R). In words: Kinase inhibition, EGFR L858R. Format: biochemical. To be noted: 10 μM ATP; 10 pt curves, 3 μM top concentration (singlicates). On the procedure:
as §2

Chain of EGFR bearing the L858R/T790M double mutation (P00533 25-1210 T790M/L858R): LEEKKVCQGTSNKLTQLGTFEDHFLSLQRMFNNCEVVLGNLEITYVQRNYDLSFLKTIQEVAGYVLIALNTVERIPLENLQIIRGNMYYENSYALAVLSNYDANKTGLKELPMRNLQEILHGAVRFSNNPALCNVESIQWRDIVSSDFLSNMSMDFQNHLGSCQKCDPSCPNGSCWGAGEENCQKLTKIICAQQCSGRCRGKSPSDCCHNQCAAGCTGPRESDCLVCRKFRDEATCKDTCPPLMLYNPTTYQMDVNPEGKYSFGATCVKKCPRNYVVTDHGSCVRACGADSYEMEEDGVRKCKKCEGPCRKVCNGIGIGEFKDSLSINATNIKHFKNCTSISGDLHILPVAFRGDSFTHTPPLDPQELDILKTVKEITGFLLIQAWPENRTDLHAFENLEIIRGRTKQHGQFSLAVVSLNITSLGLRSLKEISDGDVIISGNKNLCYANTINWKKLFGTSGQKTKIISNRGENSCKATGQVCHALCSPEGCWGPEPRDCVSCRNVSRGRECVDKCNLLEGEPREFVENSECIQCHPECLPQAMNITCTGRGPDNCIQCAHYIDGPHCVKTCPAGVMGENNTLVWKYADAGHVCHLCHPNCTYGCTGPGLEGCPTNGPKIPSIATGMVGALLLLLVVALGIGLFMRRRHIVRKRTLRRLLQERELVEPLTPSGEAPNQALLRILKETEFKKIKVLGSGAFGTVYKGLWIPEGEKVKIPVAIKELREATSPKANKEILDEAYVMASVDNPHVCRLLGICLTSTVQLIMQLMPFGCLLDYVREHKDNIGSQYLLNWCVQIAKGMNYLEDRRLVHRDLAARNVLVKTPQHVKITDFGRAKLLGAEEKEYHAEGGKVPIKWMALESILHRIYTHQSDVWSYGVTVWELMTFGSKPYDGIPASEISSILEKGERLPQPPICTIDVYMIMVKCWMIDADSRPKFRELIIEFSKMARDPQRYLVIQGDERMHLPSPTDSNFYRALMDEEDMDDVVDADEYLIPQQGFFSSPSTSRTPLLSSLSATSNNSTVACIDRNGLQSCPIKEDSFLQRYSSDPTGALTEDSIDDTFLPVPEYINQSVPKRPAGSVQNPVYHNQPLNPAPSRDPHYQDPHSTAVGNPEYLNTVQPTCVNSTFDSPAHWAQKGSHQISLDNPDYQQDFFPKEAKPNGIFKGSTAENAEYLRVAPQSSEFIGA
Chain of BAF3 EGFR DEL T790M PURO POOL (P00533 with tags, fused parts or gaps DEL746-750/T790M): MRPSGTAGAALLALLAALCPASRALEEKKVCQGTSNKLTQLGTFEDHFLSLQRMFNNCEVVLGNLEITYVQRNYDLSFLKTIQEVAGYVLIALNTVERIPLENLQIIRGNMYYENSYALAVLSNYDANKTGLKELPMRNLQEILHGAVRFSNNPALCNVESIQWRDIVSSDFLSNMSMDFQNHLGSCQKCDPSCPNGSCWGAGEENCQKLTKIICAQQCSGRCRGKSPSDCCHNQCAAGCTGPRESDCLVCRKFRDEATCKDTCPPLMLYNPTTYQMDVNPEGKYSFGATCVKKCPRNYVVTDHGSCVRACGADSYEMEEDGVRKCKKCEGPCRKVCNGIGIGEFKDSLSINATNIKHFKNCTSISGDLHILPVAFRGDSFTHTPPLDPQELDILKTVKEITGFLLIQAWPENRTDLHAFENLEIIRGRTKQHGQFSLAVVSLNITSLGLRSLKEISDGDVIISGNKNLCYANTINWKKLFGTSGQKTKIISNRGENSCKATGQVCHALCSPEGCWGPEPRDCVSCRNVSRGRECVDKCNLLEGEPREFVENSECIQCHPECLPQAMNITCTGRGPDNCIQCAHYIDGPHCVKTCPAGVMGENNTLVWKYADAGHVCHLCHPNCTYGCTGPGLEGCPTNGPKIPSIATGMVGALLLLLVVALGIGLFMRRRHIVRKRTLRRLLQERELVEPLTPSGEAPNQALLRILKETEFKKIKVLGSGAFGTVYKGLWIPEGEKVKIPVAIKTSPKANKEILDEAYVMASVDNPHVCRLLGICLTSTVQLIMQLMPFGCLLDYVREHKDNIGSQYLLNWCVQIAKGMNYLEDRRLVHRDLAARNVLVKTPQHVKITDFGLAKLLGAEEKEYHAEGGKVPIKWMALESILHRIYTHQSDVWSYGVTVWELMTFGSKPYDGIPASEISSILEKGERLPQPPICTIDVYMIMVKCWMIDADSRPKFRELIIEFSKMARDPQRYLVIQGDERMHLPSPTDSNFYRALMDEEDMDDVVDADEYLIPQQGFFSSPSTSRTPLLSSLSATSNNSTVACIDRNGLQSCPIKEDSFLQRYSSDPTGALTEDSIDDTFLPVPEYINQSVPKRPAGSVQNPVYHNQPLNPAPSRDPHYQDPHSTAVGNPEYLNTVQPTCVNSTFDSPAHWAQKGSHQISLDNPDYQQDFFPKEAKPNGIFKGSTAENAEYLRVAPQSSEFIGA
Chain of EGFR bearing the L858R mution (P00533 25-1210 L858R): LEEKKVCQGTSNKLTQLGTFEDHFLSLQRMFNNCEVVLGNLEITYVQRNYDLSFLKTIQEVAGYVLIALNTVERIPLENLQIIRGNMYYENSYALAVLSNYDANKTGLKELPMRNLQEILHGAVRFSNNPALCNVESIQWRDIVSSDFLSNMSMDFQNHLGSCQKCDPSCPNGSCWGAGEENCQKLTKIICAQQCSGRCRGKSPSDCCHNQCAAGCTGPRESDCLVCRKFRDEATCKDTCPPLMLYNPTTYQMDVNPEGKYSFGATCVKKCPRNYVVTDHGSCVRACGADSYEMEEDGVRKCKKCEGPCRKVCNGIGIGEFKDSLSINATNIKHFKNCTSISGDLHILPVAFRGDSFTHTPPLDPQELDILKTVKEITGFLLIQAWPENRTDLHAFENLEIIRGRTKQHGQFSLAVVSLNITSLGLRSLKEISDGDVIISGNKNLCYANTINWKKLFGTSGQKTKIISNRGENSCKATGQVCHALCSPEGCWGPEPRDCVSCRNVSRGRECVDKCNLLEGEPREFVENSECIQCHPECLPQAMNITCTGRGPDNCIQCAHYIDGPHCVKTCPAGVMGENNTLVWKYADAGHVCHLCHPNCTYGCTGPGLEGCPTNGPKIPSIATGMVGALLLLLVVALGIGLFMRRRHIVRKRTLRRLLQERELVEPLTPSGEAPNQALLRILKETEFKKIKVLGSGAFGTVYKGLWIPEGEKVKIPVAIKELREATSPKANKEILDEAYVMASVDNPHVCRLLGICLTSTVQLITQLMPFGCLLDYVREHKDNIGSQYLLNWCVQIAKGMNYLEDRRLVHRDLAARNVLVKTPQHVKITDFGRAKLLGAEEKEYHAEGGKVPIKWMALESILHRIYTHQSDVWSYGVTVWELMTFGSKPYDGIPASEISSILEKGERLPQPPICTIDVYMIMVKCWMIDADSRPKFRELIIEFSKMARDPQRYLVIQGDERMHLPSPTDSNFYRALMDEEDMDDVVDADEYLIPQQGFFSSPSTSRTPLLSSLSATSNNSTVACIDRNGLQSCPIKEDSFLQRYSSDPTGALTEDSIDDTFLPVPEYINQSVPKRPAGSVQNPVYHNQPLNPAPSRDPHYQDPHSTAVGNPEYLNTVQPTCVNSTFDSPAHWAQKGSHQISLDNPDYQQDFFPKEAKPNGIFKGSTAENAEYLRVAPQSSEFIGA

`C=CC(=O)Nc1cc(Nc2ncc(Cl)c(Nc3ccccc3P(C)(C)=O)n2)c(OC)cc1N1CCN(C)CC1` [Example 18, N-(5-((5-chloro-4-((2-(dimethylphosphoryl)phenyl)amino)pyrimidin-2-yl)amino)-4-methoxy-2-(4-methylpiperazin-1-yl)phenyl)acrylamide]: the IC50 in test [1] was 51 to 100 nM; in test [2] it was 51 to 100 nM; in the test on BAF3 PARENTAL it was not below 250 nM; in test [3] it was less than 51 nM; in test [4], less than 51 nM; in test [5], less than 51 nM.

For `C=CC(=O)Nc1cc(Nc2ncc(Cl)c(Nc3ccccc3P(C)(C)=O)n2)c(OC)cc1OCCN(C)C` [Example 19, N-(5-((5-chloro-4-((2-(dimethylphosphoryl)phenyl)amino)pyrimidin-2-yl)amino)-2-(2-(dimethylamino)ethoxy)-4-methoxyphenyl)acrylamide], the IC50 in test [1] was less than 51 nM; in test [2], less than 51 nM; in the test with BAF3 PARENTAL, not below 250 nM; in test [3], less than 51 nM; in test [4], less than 51 nM; in test [5], less than 51 nM.

Consider `C=CC(=O)Nc1cc(Nc2ncc(Cl)c(Nc3ccccc3P(C)(C)=O)n2)c(OC)cc1OC` [Example 20, N-(5-((5-chloro-4-((2-(dimethylphosphoryl)phenyl)amino)pyrimidin-2-yl)amino)-2,4-dimethoxyphenyl)acrylamide], for which the IC50 in test [1] was 101 to 250 nM; in test [2], not below 250 nM; in the test with BAF3 PARENTAL it was not below 250 nM; in test [3], less than 51 nM; in test [4], less than 51 nM; in test [5], less than 51 nM.

Consider `C=CC(=O)N(CCCN(C)C)c1ccc(OC)c(Nc2ncc(Cl)c(Nc3ccccc3P(C)(C)=O)n2)c1` [Example 21, N-(3-((5-chloro-4-((2-(dimethylphosphoryl)phenyl)amino)pyrimidin-2-yl)amino)-4-methoxyphenyl)-N-(3-(dimethylamino)propyl)acrylamide], for which the IC50 in test [1] was not below 250 nM; in test [2] it was not below 250 nM; in the test on BAF3 PARENTAL, not below 250 nM; in test [3], 101 to 250 nM; in test [4] it was 51 to 100 nM; in test [5] it was 101 to 250 nM.

On to `C=CC(=O)Nc1cc(Nc2ncc(Cl)c(Nc3ccccc3P(C)(C)=O)n2)c(OC)cc1F` [Example 22], for which the IC50 is less than 51 nM in test [1]; less than 51 nM in test [2]; not below 250 nM with BAF3 PARENTAL; less than 51 nM in test [3]; less than 51 nM in test [4]; less than 51 nM in test [5].

Regarding `C=CC(=O)Nc1cc(Nc2ncc(Cl)c(Nc3ccccc3P(C)(C)=O)n2)c(OC)cc1OC1CCOC1` (stereo not drawn) [Example 24, N-(5-((5-chloro-4-((2-(dimethylphosphoryl)phenyl)amino)pyrimidin-2-yl)amino)-4-methoxy-2-((tetrahydrofuran-3-yl)oxy)phenyl)acrylamide], the IC50 in test [1] is 101 to 250 nM; in test [2] it was not below 250 nM; with BAF3 PARENTAL it was not below 250 nM; in test [3] it was not below 250 nM; in test [4] it was less than 51 nM; in test [5], less than 51 nM.

For `C=CC(=O)Nc1cc(Nc2ncc(Cl)c(Nc3ccccc3P(C)(C)=O)n2)c(OC)cc1OCCOC` [Example 25, N-(5-((5-chloro-4-((2-(dimethylphosphoryl)phenyl)amino)pyrimidin-2-yl)amino)-4-methoxy-2-(2-methoxyethoxy)phenyl)acrylamide], the IC50 in test [1] is 51 to 100 nM; in test [2], not below 250 nM; with BAF3 PARENTAL, not below 250 nM; in test [3], less than 51 nM; in test [4] it was less than 51 nM; in test [5], less than 51 nM.

On to `C=CC(=O)N(C(=O)C=C)c1ccc(OC)c(Nc2ncc(Cl)c(Nc3ccccc3P(C)(C)=O)n2)c1` [Example 26, N-acryloyl-N-(3-((5-chloro-4-((2-(dimethylphosphoryl)phenyl)amino)pyrimidin-2-yl)amino)-4-methoxyphenyl)acrylamide], for which the half-maximal inhibitory concentration (IC50) is 51 to 100 nM in test [1]; not below 250 nM in test [2]; not below 250 nM with BAF3 PARENTAL; less than 51 nM in test [3]; 101 to 250 nM in test [4]; 101 to 250 nM in test [5].

Regarding `C=CC(=O)Nc1cc(Nc2ncc(Cl)c(Nc3ccccc3P(C)(C)=O)n2)c(OC)cc1OC(COC)CN(CC)CC` (stereo not drawn) [Example 27], the IC50 is less than 51 nM in test [1]; less than 51 nM in test [2]; not below 250 nM with BAF3 PARENTAL; less than 51 nM in test [3]; less than 51 nM in test [4]; less than 51 nM in test [5].

Regarding `C=CC(=O)Nc1cc(Nc2ncc(Cl)c(Nc3ccccc3P(C)(C)=O)n2)c(OC)cc1OC(COC)CN(C)C` (stereo not drawn) [Example 28, N-(5-((5-chloro-4-((2-(dimethylphosphoryl)phenyl)amino)pyrimidin-2-yl)amino)-2-((1-(dimethylamino)-3-methoxypropan-2-yl)oxy)-4-methoxyphenyl)acrylamide], the IC50 in test [1] was less than 51 nM; in test [2], less than 51 nM; in the test on BAF3 PARENTAL, not below 250 nM; in test [3] it was less than 51 nM; in test [4], less than 51 nM; in test [5], less than 51 nM.

Consider `C=CC(=O)Nc1cc(Nc2ncc(Cl)c(Nc3ccccc3P(C)(C)=O)n2)c(OC)cc1N1CCOCC1` [Example 32, N-(5-((5-chloro-4-((2-(dimethylphosphoryl)phenyl)amino)pyrimidin-2-yl)amino)-4-methoxy-2-morpholinophenyl)acrylamide], for which the IC50 in test [1] is 51 to 100 nM; in test [2] it was not below 250 nM; in the test on BAF3 PARENTAL, not below 250 nM; in test [3], less than 51 nM; in test [4], less than 51 nM; in test [5], less than 51 nM.

For `C=CC(=O)Nc1cc(Nc2ncc(Cl)c(Nc3ccccc3P(C)(C)=O)n2)c(OC)cc1N(C)CCN(CC)CC` [Example 33, N-(5-((5-chloro-4-((2-(dimethylphosphoryl)phenyl)amino)pyrimidin-2-yl)amino)-2-((2-(diethylamino)ethyl)(methyl)amino)-4-methoxyphenyl)acrylamide], the IC50 in test [1] is less than 51 nM; in test [2] it was less than 51 nM; in the test with BAF3 PARENTAL it was not below 250 nM; in test [3], less than 51 nM; in test [4] it was less than 51 nM; in test [5], less than 51 nM.

As for `C=CC(=O)Nc1cc(Nc2ncc(Cl)c(Nc3ccccc3P(C)(C)=O)n2)c(OC)cc1N(C)CCCN(C)C` [Example 34, N-(5-((5-chloro-4-((2-(dimethylphosphoryl)phenyl)amino)pyrimidin-2-yl)amino)-2-((3-(dimethylamino)propyl)(methyl)amino)-4-methoxyphenyl)acrylamide], the IC50 in test [1] is 101 to 250 nM; in test [2] it was not below 250 nM; with BAF3 PARENTAL it was not below 250 nM; in test [3], less than 51 nM; in test [4], 51 to 100 nM; in test [5] it was 101 to 250 nM.

Regarding `C=C(CN(C(C)C)C(C)C)C(=O)Nc1ccc(OC)c(Nc2ncc(Cl)c(Nc3ccccc3P(C)(C)=O)n2)c1` [Example 35, N-(3-((5-chloro-4-((2-(dimethylphosphoryl)phenyl)amino)pyrimidin-2-yl)amino)-4-methoxyphenyl)-2-((diisopropylamino)methyl)acrylamide], the concentration for half-maximal inhibition (IC50) in test [1] was less than 51 nM; in test [2] it was less than 51 nM; with BAF3 PARENTAL it was not below 250 nM; in test [3] it was less than 51 nM; in test [4] it was less than 51 nM; in test [5], less than 51 nM.

Regarding `C=CC(=O)Nc1cc(Nc2ncc(Cl)c(Nc3ccccc3P(C)(C)=O)n2)c(OC)cc1OCC(COC)N(C)C` (stereo not drawn) [Example 37, N-(5-((5-chloro-4-((2-(dimethylphosphoryl)phenyl)amino)pyrimidin-2-yl)amino)-2-(2-(dimethylamino)-3-methoxypropoxy)-4-methoxyphenyl)acrylamide], the IC50 is less than 51 nM in test [1]; less than 51 nM in test [2]; not below 250 nM in the test on BAF3 PARENTAL; less than 51 nM in test [3]; less than 51 nM in test [4]; less than 51 nM in test [5].

For the compound `C=CC(=O)Nc1cc(Nc2ncc(Cl)c(Nc3ccccc3P(C)(C)=O)n2)c(OC)cc1N(C)CCN(C)CCOC` [Example 38, N-(5-((5-chloro-4-((2-(dimethylphosphoryl)phenyl)amino)pyrimidin-2-yl)amino)-4-methoxy-2-((2-((2-methoxyethyl)(methyl)amino)ethyl)(methyl)amino)phenyl)acrylamide], the IC50 is less than 51 nM in test [1]; less than 51 nM in test [2]; not below 250 nM with BAF3 PARENTAL; less than 51 nM in test [3]; less than 51 nM in test [4]; less than 51 nM in test [5].

On to `C=CC(=O)Nc1cc(Nc2ncc(Cl)c(Nc3ccccc3P(C)(C)=O)n2)c(OC)cc1OCCN(C)CCOC` [Example 39, N-(5-((5-chloro-4-((2-(dimethylphosphoryl)phenyl)amino)pyrimidin-2-yl)amino)-4-methoxy-2-(2-((2-methoxyethyl)(methyl)amino)ethoxy)phenyl)acrylamide], for which the half-maximal inhibitory concentration (IC50) was less than 51 nM in test [1]; less than 51 nM in test [2]; not below 250 nM in the test with BAF3 PARENTAL; less than 51 nM in test [3]; less than 51 nM in test [4]; less than 51 nM in test [5].
